Data taken from patent US11319300B2, “Polyfluoro-substituted aromatic heterocyclic derivative, pharmaceutical composition containing same, and applications thereof” (ZHEJIANG UNIVERSITY, priority 2017, dated 2022).
Where a name gives a salt, the structure may show the parent alone. Marks after values point to notes of the source that are not given here.

What was measured:
HCT-116 = test: Tumour cell proliferation inhibition, MTT assay, HCT-116; assay type: cell-based, human
Experimental: (§1) Compound AZD5363 (NCT02208375, NCT02208375, NCT01625286), which have entered the clinical phase II study, was used as a positive control, and the compound was assayed against common tumour cell lines (human ovarian cancer cell line OVCAR-8 and human colon cancer cell line HCT-116) by MTT assay, at the same time, the akt1 enzyme inhibitory activity (IC50) was evaluated using a commercial Akt1 kit.
1) The pharmacological test method for the tumour cell proliferation inhibiting activity of the compound of the present invention was as follows:
The first was the determination of in vitro tumour growth inhibitory activity and the preliminary structure-activity relationship study, and different solid tumour cell lines were used to determine the in vitro antitumour activity of the synthesized compounds.
Experimental materials: cell lines: human ovarian cancer cells (OVCAR8), colon adenocarcinoma cells (HCT-116),
Medium: OVCAR8: RPMI 1640+fetal calf serum
Drug preparation method: dissolving the drug in DMSO to make a 50 mM of stock solution, and diluting it to a certain ratio to obtain 5 different concentrations.
Tumour Cells being Cultured In Vitro:
The selected tumour cells were incubated in a, 5% of CO2 cell incubator at 37° C., and passaged until the cell density was 70 to 90% (the adherent cells were passaged with Duck's EDTA) and used for subsequent experiments.
The compound was dissolved in dimethyl sulfoxide (DMSO), diluted, and tumour cells were seeded into 4000 cells/200 μL/well in 96-well plates, and 1 μL of compound was added to each well to a final concentration of 50 μM, 10 μM, 2 μM, and 0.4 μM. 0.08 μM were incubated in a, 5% of CO2 cell incubator at 37° C. for 72 hours with DMSO (1%) as a blank control.
The calculation formula of the cell inhibition rate is: cell inhibition rate %=(control group OD value−drug group OD value)/control cell OD value×100%, and the half inhibition concentration (IC50) was determined by the Bliss method.

AKT1/PKBα = molecular target: T1, AKT1/PKBα (Homo sapiens, UniProt P31749); test: Akt1 enzyme inhibitory activity, AKT1/PKBα KinEASE FP Fluorescein Green Assay; assay type: biochemical; conditions: fluorescence polarization kit assay; read-out: Akt1 IC50 (grade)
T1 construct: purchased
T1 sequence (P31749 whole entry): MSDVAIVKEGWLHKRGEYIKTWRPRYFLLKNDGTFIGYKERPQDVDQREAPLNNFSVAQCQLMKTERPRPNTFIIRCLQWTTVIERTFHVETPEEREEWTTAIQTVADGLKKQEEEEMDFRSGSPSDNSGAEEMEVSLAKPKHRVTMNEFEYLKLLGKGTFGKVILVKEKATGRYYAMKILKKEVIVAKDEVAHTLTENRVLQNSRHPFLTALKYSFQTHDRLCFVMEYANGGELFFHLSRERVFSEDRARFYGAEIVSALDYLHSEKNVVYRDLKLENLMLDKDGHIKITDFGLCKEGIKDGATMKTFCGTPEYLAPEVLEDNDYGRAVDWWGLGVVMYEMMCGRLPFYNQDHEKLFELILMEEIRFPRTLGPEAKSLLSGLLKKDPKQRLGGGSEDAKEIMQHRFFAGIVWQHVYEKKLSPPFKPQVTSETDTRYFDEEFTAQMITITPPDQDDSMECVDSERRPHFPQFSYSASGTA
Experimental: as §1
2) Test method for the inhibitory activity of the compound of the present invention against Akt1 enzyme:
The AKT1/PKBα KinEASE™ FP Fluorescein Green Assay (Kinase Green Fluorescence Detection System) was used to detect the inhibitory activity of the compound on AKT1/PKBα.
Fluorescence polarization detection protein kinase B employs the principle of a competitive reaction: a fluorescently labeled phosphorylated tracer and an unlabeled phosphorylated product produced by the reaction of protein kinase B will compete with the anti-serine antibody for binding. In a reaction mixture […], when a part of the fluorescent tracer binds to the antibody, it causes a higher polarization value. However, in the reaction solution mixture containing the phosphorylated product, less tracer binds to the antibody (the fluorescent tracer was replaced from the antibody) and the emitted signal was depolarized. Therefore, the change in polarization was directly related to the activity of protein kinase B in the reaction.
The compound of the present invention and the positive control AZD5363 were dissolved in dimethyl sulfoxide (DMSO) and diluted to a concentration of 50 μM. At room temperature, 0.25 μl of the compound sample and the positive control at a concentration of 50 μM were taken and added to the 384-well plate, and three parallel wells were set for each sample, and then 10 μl of STK Substrate 3, Working Solution, 5 μl AKT1/PKBα Working Solution, 10 μl ATP Working Solution were added to each sample well plate with vibrating gently and shaking for a few minutes. The reaction starts after 10 μl of ATP Working Solution was added to the well, and the reaction was timed at room temperature for 1 hour. After one hour, 5 μl of STK Stop Mix and 5 μl of STK Antibody Mix were added to each well respectively to stop the reaction. After the addition completes, it was allowed to stand at room temperature for four hours, and the polarization value of the sample was detected by the fluorescence polarization of the microplate reader (it was effective to detect its signal within 24 hours), and the inhibition rate of the compound was calculated by the polarization value, and then IC50 was calculated.
Four sets of controls were set in the experiment, namely Buffer Control Wells, Tracer Control Wells, No Enzyme Wells, and a blank dimethyl sulfoxide control. The resulting data was used to calculate the inhibition rate.
The activity of the compound was divided into three grades according to the size of the IC50 of the Akt inhibitory activity: “+++”, 1 nM<IC50<10 nM; “++”, 10 nM<IC50<50 nM; “+”, 50 nM<IC50.

CEM-C1 = test: Tumour cell proliferation inhibition, MTT assay, CEM-C1; assay type: cell-based, human
786-O = test: Tumour cell proliferation inhibition, MTT assay, 786-O; assay type: cell-based, human
MCF-7 = test: Tumour cell proliferation inhibition, MTT assay, MCF-7; assay type: cell-based, human
HGC27 = test: Tumour cell proliferation inhibition, MTT assay, HGC27; assay type: cell-based, human
[1] = test system: human gastric cancer HGC27 nude mice xenografts; test: In vivo antitumour activity, human gastric cancer HGC27 nude mice xenografts; conditions: HGC27 xenograft, 50 mg/kg intragastric once a day
Experimental: A Sixty-Fifth Embodiment: In Vivo Antitumour Activity of Compounds
1) Establishment of a nude mouse xenograft model: 1×10^7 test tumour cells were injected into the armpit of nude mice, after three generations, HGC27 mouse tumour blocks were dissected and placed in a glass dish containing physiological saline, after the necrotic area was removed by incision, the tumour mass was cut into 1-2 mm^3 and inserted into the left axilla of the nude mouse with a trocar.
2) Animal grouping and drug delivery arrangements: after the tumour grows to an average volume of 100-300 mm^3, 20 mice were randomly grouped according to the tumour volume, and the above test animals were given the corresponding test substances by intragastric administration at a dose of 10 mL/kg with once a day.
3) Data measurement and statistics: The tumour volume was weighed and measured twice and dosing period was 21 days. On the 22nd day, after the body weight was weighed and the tumour volume was measured, the nude mice were sacrificed and the tumours were weighed to calculate the relative tumour volume (RTV), relative tumour growth rate (T/C) and tumour inhibition percentage (IR) for statistical testing. The calculation formula was as follows: (a) TV (tumour volume)=½×a×b^2, wherein a and b represent the length and width of the tumour respectively, (b) RTV (relative tumour volume)=Vt/V0, Where V0 is the tumour volume measured at the time of group administration (i.e. d0), Vt is the tumour volume at each measurement, (c) T/C (%)=TRTV/CRTV×100%, wherein TRTV is the RTV of treatment group, CRTV is the RTV of the solvent control group, (d) IR (%)=(1−TWt/TWc)×100%, wherein TWt is the tumour weight of the treatment group, and TWc is the tumour weight of the solvent control group.

IC50 (AKT1/PKBα)	IC50 (HCT-116; Homo sapiens, HCT-116, 72 h)	IC50 (CEM-C1; Homo sapiens, CEM/C1, 72 h)	IC50 (786-O; Homo sapiens, 786-0, 72 h)	IC50 (MCF-7; Homo sapiens, MCF7, 72 h)	IC50 (HGC27; Homo sapiens, HGC-27, 72 h)	SMILES	other results
0.01 to 0.05 µM	10.5 µM	0.62 µM	2.06 µM	10.6 µM	0.19 µM	Cn1nccc1-c1ccc(C(=O)N[C@@H]2CNCC[C@H]2c2ccc(F)c(F)c2)cc1 [drawing 111, reference compound]	–
–	–	–	–	–	–	Cn1nccc1-c1ccc(C(=O)N[C@@H]2CNCC[C@H]2c2ccc(F)c(F)c2)cc1 [drawing 115, reference compound]	RTV [1]: 22.60 ± 12.41; T/C(%) [1]: 53.75%; Tumour volume D1 ([1]; D1 (start)): 216 ± 98 mm^3; Tumour volume D22 ([1]; D22): 1650 ± 720* mm^3
0.01 to 0.05 µM	5.86 µM	0.57 µM	1.28 µM	6.32 µM	0.12 µM	Cn1ncc(Cl)c1-c1ccc(C(=O)N[C@@H]2CNCC[C@H]2c2ccc(F)c(F)c2)cc1F [reference compound]	–
0.001 to 0.01 µM	6.15 µM	0.44 µM	2.99 µM	5.13 µM	0.18 µM	Cn1ncc(Cl)c1-c1ccc(C(=O)N[C@@H]2CNCC[C@H]2c2ccc(Cl)cc2)c(C(F)(F)F)c1 [reference compound]	–

SMILES	IC50 (AKT1/PKBα)	IC50 (HCT-116; Homo sapiens, HCT-116, 72 h)	IC50 (CEM-C1; Homo sapiens, CEM/C1, 72 h)	IC50 (786-O; Homo sapiens, 786-0, 72 h)	IC50 (MCF-7; Homo sapiens, MCF7, 72 h)	IC50 (HGC27; Homo sapiens, HGC-27, 72 h)	other results
Cn1nccc1-c1ccc(C(=O)N[C@@H]2CNCC[C@H]2c2ccc(F)c(F)c2)c(F)c1 [VII-34, D-tartrate]	0.001 to 0.01 µM	–	–	–	–	–	IC50 (HCT-116; 72 hours, D-tartrate): 2.15 µM; IC50 (CEM-C1; 72 hours, D-tartrate): 0.13 µM; IC50 (786-O; 72 hours, D-tartrate): 1.06 µM; IC50 (MCF-7; 72 hours, D-tartrate): 3.09 µM; IC50 (HGC27; 72 hours, D-tartrate): 0.03 µM
Cn1nccc1-c1ccc(C(=O)N[C@@H]2CNCC[C@H]2c2ccc(F)c(F)c2)c(F)c1 [VII-37, citrate]	0.001 to 0.01 µM	–	–	–	–	–	IC50 (HCT-116; 72 hours, citrate): 1.06 µM; IC50 (CEM-C1; 72 hours, citrate): 0.11 µM; IC50 (786-O; 72 hours, citrate): 0.67 µM; IC50 (MCF-7; 72 hours, citrate): 1.36 µM; IC50 (HGC27; 72 hours, citrate): 0.05 µM
